Assay results published in US8969397B2, “Systems and methods to treat pain locally” (Warsaw Orthopedic, Inc., priority 2004, dated 2015).

What was measured:
[1] = tested on: chronic constriction injury (CCl) of the sciatic nerve; test: Thermal hyperalgesia test (paw withdrawal latency) after chronic constriction injury; assay type: in vivo, rat; conditions: for mean paw withdrawal latency over baseline: Example 1, FIG. 2; for increase in paw withdrawal latency over baseline: 0.1 mg/kg
Description: (§1) The behavioral animal model of chronic constriction injury (“CCl”) was chosen to evaluate the efficacy of NFκB inhibitors as a pain treatment. This model may mimic pain associated with sciatica in humans. To induce CCl, each animal was anesthetized by intraperitoneal (“i.p.”) injection of sodium pentobarbital at a dose of 60 mg/kg body weight. The animal's right common sciatic nerve was exposed and freed from adherent tissue at mid-thigh by separating the muscle (biceps femoris) by blunt dissection. Four loose ligatures were placed 1 mm apart, using chromic gut (4-0 absorbable suture, Jorgensen Laboratories Inc., Loveland, Colo.).
Animal behavioral testing was conducted on Days 7, 14 and 21 after CCl. In the thermal hyperalgesia test, animals were placed in the clear plastic chamber of a plantar analgesia instrument and allowed to acclimate to the environment for 15 minutes. After the acclimation period, a radiant (heat) beam source stimulus was applied to the CCl hind paw of each animal. The heat source device was set at an intensity of 50, and a maximum latency period of 15 seconds was set to prevent tissue damage according to the recommendations of the instrument manufacturer. If a paw withdrawal occurred within the 15 second period, an automated control interrupted both the stimulus and timer, turning off the radiant beam and recording the latency of time to paw withdrawal. Data was analyzed using a one-way analysis of variance at each test day.
Specifically, the same methods as described above were used except that sulfasalazine was administered at doses of 5 mg/kg; 1 mg/kg or 0.2 mg/kg.
Following the previous experiment, the effect of local doses of clonidine on pain sensitivity was explored. Animals were administered vehicle or test substances through a subcutaneously implanted Alzet pump. Again, the previously described methods for CCl and paw withdrawal latency measurements were followed except that in the presently described experiment animals received either vehicle control; 1 μg/hour Enbrel® as a positive control; 0.01 μg/hour clonidine; 0.05 μg/hour clonidine; or 0.25 μg/hour clonidine.

[2] = tested on: chronic constriction injury (CCl) of the sciatic nerve; test: Mechanical (tactile) allodynia, von Frey filaments, after chronic constriction injury; assay type: in vivo, rat; conditions: for pain sensitivity in the mechanical allodynia test, in words / decrease in pain sensitivity, mechanical allodynia test: Example 4, FIG. 5B; for sensitivity in mechanical allodynia paradigm compared to controls: Example 3, FIG. 4, Days 8, 15 and 22 following CCl
Description: as §1
The ability of sulfasalazine to inhibit pain was also evaluated using a different sensitivity measure following CCl, namely mechanical (or tactile) allodynia. In this study, mechanical allodynia was determined in reaction to probing with von Frey filaments (Stoelting, Wood Dale, Ill.). Mechanical sensitivity was measured on Days 8, 15 and 22 following CCl by determining the median 50% foot withdrawal threshold for von Frey filaments using the up-down method described in Chaplan et al. (J Neurosci Methods 1994; 54:55) which is incorporated by reference herein for its teachings regarding the up-down method. Rats were placed under a plastic cover (9×9×20 cm) on a metal mesh floor. The area tested was the middle glabrous area between the footpads of the plantar surface of the injured hind paw within the L4 innervation area. The plantar area was touched with a series of 9 von Frey hairs with approximately exponentially incremental bending forces (von Frey values: 3.61, 3.8, 4.0, 4.2, 4.41, 4.6, 4.8, 5.0, and 5.2; equivalent to: 0.41, 0.63, 1.0, 1.58, 2.51, 4.07, 6.31, 10, and 15.8 g). The von Frey hair was presented perpendicular to the plantar surface with sufficient force to cause slight bending and held for approximately 3 to 4 seconds. Abrupt withdrawal of the foot (paw flinching) was recorded as a response. Any rat showing a mechanical threshold of more than 3.24 g was eliminated from the study.

[3] = rat, in vivo, 100 mg/kg
[4] = tested on: Complete Freund's Adjuvant (CFA) inflammatory pain model; conditions: spinal administration; cited from earlier work

Compound: S=C(S)N1CCCC1 [PDTC, pyrollidinedithiocarbamate]
- paw withdrawal latencies versus control levels ([1]; Example 4, FIG. 5A, 20 mg/kg or 100 mg/kg, not as effective as other NFκB inhibiting compounds): did increase paw withdrawal latencies over control levels
- pain sensitivity in the mechanical allodynia test, in words ([2]; compared to animals receiving vehicle or Enbrel): showed some effect in decreasing pain sensitivity
- drug toxicity [3]: removed from the study following the second day of testing due to drug toxicity
- mechanical allodynia [4]: significantly reduce
- thermal hyperalgesia [4]: significantly reduce

Compound: Enbrel®
- mean paw withdrawal latency over baseline ([1]; 3 mg/kg, test day 7): about 60%
- mean paw withdrawal latency over baseline ([1]; 3 mg/kg, test day 14): ~63%
- mean paw withdrawal latency over baseline ([1]; 3 mg/kg, test day 21): ~75%
- paw withdrawal latency over baseline ([1]; Example 2, FIG. 3, positive control, test day 7): about 51%
- paw withdrawal latency over baseline ([1]; Example 2, FIG. 3, positive control, test day 14): ~63%
- paw withdrawal latency over baseline ([1]; Example 2, FIG. 3, positive control, test day 21): ~62%
- paw withdrawal latency over baseline, average ([1]; Example 4, FIG. 5A, 3 mg/kg, all three test days): about 51%
- paw withdrawal latency over baseline ([1]; Example 5, FIG. 6, subcutaneously implanted Alzet pump, 1 μg/hour, test day 7): about 45%
- paw withdrawal latency over baseline ([1]; Example 5, FIG. 6, subcutaneously implanted Alzet pump, 1 μg/hour, test day 14): about 60%
- paw withdrawal latency over baseline ([1]; Example 5, FIG. 6, subcutaneously implanted Alzet pump, 1 μg/hour, test day 21): ~71%
- sensitivity in mechanical allodynia paradigm compared to controls [2]: decreased sensitivity

Compound: O=C(O)c1cc(/N=N/c2ccc(S(=O)(=O)Nc3ccccn3)cc2)ccc1O [sulfasalazine]
- mean paw withdrawal latency over baseline ([1]; 5 mg/kg, test day 7): about 80%
- mean paw withdrawal latency over baseline ([1]; 5 mg/kg, test day 14): ~83%
- mean paw withdrawal latency over baseline ([1]; 5 mg/kg, test day 21): ~87%
- mean paw withdrawal latency over baseline ([1]; 50 mg/kg, test day 7): about 74%
- mean paw withdrawal latency over baseline ([1]; 50 mg/kg, test day 14): ~79%
- mean paw withdrawal latency over baseline ([1]; 50 mg/kg, test day 21): ~83%
- sensitivity in mechanical allodynia paradigm compared to controls [2]: decreased sensitivity

Compound: Clc1cccc(Cl)c1N=C1NCCN1 [clonidine]
- increase in paw withdrawal latency over baseline ([1]; Example 4, FIG. 5A, test day 7): about 78%
- increase in paw withdrawal latency over baseline ([1]; Example 4, FIG. 5A, test day 21): ~61%
- increase in paw withdrawal latency over baseline ([1]; Example 4, FIG. 5A, test day 41): ~60%
- paw withdrawal latency over baseline ([1]; Example 5, FIG. 6, subcutaneously implanted Alzet pump, 0.01 μg/hour, test day 7): about 60%
- paw withdrawal latency over baseline ([1]; Example 5, FIG. 6, subcutaneously implanted Alzet pump, 0.01 μg/hour, test day 14): ~64%
- paw withdrawal latency over baseline ([1]; Example 5, FIG. 6, subcutaneously implanted Alzet pump, 0.01 μg/hour, test day 21): ~79%
- paw withdrawal latency over baseline ([1]; Example 5, FIG. 6, subcutaneously implanted Alzet pump, 0.05 μg/hour, test day 7): about 68%
- paw withdrawal latency over baseline ([1]; Example 5, FIG. 6, subcutaneously implanted Alzet pump, 0.05 μg/hour, test day 14): ~64%
- paw withdrawal latency over baseline ([1]; Example 5, FIG. 6, subcutaneously implanted Alzet pump, 0.05 μg/hour, test day 21): ~83%
- paw withdrawal latency over baseline ([1]; Example 5, FIG. 6, subcutaneously implanted Alzet pump, 0.25 μg/hour, test day 7): about 63%
- paw withdrawal latency over baseline ([1]; Example 5, FIG. 6, subcutaneously implanted Alzet pump, 0.25 μg/hour, test day 14): ~70%
- paw withdrawal latency over baseline ([1]; Example 5, FIG. 6, subcutaneously implanted Alzet pump, 0.25 μg/hour, test day 21): ~82%
- dose reduction without loss of efficacy ([1]; Example 5, local dosing by pump): 25 fold
- decrease in pain sensitivity, mechanical allodynia test ([2]; 0.1 mg/kg, day 8): about 58%
- decrease in pain sensitivity, mechanical allodynia test ([2]; 0.1 mg/kg, day 15): ~20%
- decrease in pain sensitivity, mechanical allodynia test ([2]; 0.1 mg/kg, day 22): ~48%
- pain sensitivity in the mechanical allodynia test, in words ([2]; low dose (0.02 mg/kg), effect not as strong): decreased sensitivity

Compound: CC1=C(CC(=O)O)c2cc(F)ccc2/C1=C\c1ccc([S+](C)[O-])cc1 (centres unmarked) [sulindac]
- paw withdrawal latency over baseline ([1]; Example 4, FIG. 5A, 2 mg/kg, all three test days): about 65%
- paw withdrawal latency over baseline ([1]; Example 4, FIG. 5A, 10 mg/kg, test day 7): about 65%
- paw withdrawal latency over baseline ([1]; Example 4, FIG. 5A, 10 mg/kg, test day 21): about 75%
- paw withdrawal latency over baseline ([1]; Example 4, FIG. 5A, 10 mg/kg, test day 41): ~81%
- decrease in pain sensitivity, mechanical allodynia test ([2]; 2 mg/kg, day 8): about 66%
- decrease in pain sensitivity, mechanical allodynia test ([2]; 2 mg/kg, day 15): ~50%
- decrease in pain sensitivity, mechanical allodynia test ([2]; 2 mg/kg, day 22): ~35%
- decrease in pain sensitivity, mechanical allodynia test ([2]; 10 mg/kg, day 8): about 68%
- decrease in pain sensitivity, mechanical allodynia test ([2]; 10 mg/kg, day 15): about 58%
- decrease in pain sensitivity, mechanical allodynia test ([2]; 10 mg/kg, day 22): ~60%
